Reference: patent US20050282910A1, “Methods of application of chemical compounds having therapeutic activities in treating cancers” (priority 2003, published 2005)
Converted amounts (≈) assume the structure as drawn. Where two headings read alike, the source gives them in different places. One block for each molecule: values may come before it.

What was measured:
[1] = test system: human breast cancer MDR cell line MCF7/adr; assay: cells; settings: NCI/ADR-RES, 72 h
[2] = test system: human epidermoid carcinoma MDR cell line KBv200
[3] = test system: human leukemia MDR cell line K562/adr; assay: Reversal of P-glycoprotein-mediated drug resistance by Schisandrin A, Schisandrol A, Schisantherin A, MTT cytotoxicity of anticancer agents; type: cell-based; settings: K562/adr; for IC50: Homo sapiens, K562/Adr, 72 h
Experimental: Assays were carried out in triplicate against human leukemia MDR cell line K562/adr, human breast cancer MDR cell line MCF7/adr, and human epidermoid carcinoma MDR cell line KBv200.

[4] = test system: MCF7/adr; assay: Reversal of drug resistance by ethanol extracts of Schisandra chinensis fruit, MTT cytotoxicity of anticancer agents
[5] = test system: human breast cancer MDR cell line MCF7/adr
[6] = test system: HL60/adr; assay: Reversal of MRP1-mediated drug resistance, MTT cytotoxicity of anticancer agents; type: cell-based, human; settings: HL60/adr; for IC50 (ng/ml) +Schisandrin B: anticancer agent in the presence of Schisandrin B (10 μg/ml); for IC50: Homo sapiens, HL60/ADR, 72 h
Experimental: Assays were carried out in triplicate against MDR cancer cell HL60/adr. MTT assays as described previously (X.

[7] = test system: K562/adr; assay: Reversal of drug resistance by ethanol extracts of Schisandra chinensis fruit, MTT cytotoxicity of anticancer agents; type: cell-based, human
Experimental: Assays were carried out in triplicate against human MDR cancer cell lines K562/adr, KBv200, and MCF7/adr. […] Alternatively, flow cytometry assays using FACS Calibur equipped with software Cellquest 3.1f (Becton-Dickinson, Holbrook, N.J.) were applied to count the cell numbers in each sample.

[8] = test system: human epidermoid carcinoma MDR cell line KBv200; assay: cells; settings: KBv200, 72 h
[9] = read-out: IC50 (ng/ml) −Schisandrin A
[10] = read-out: IC50 (ng/ml) −Schisantherin A
[11] = anticancer agent in the presence of Schisandrin A (10 μg/ml), 72 hours
[12] = anticancer agent in the presence of Schisantherin A (10 μg/ml), 72 hours
[13] = anticancer agent in the absence of Schisandrin A, 72 hours, read-out: IC50 (ng/ml) −Schisandrin A
[14] = anticancer agent in the absence of Schisantherin A, 72 hours, read-out: IC50 (ng/ml) −Schisantherin A
[15] = anticancer agent in the absence of Schisandrin B, 72 hours, read-out: IC50 (ng/ml) −Schisandrin B

- IC50 [1, 9]: 40.5 ± 11 ng/mL (≈ 0.0474 µM)
- IC50 [1, 10]: 40.6 ± 20.3 ng/mL (≈ 0.0475 µM)
- IC50 (ng/ml) +Schisandrin A [2, 11]: 1.91 ± 1.2 ng/mL
- IC50 (ng/ml) +Schisantherin A [2, 12]: 2.4 ± 0.7 ng/mL
- IC50 (ng/ml) +Schisandrin A [5, 11]: 6.1 ± 1.9 ng/mL
- IC50 (ng/ml) +Schisantherin A [5, 12]: 6.3 ± 3.1 ng/mL
- IC50 [8, 9]: 20.2 ± 2.8 ng/mL (≈ 0.0237 µM)
- IC50 [8, 10]: 20.2 ± 3.8 ng/mL (≈ 0.0237 µM)
Compound: CC(=O)O[C@H]1C(=O)[C@@]2(C)[C@H]([C@H](OC(=O)c3ccccc3)[C@]3(O)C[C@H](OC(=O)[C@H](O)[C@@H](NC(=O)c4ccccc4)c4ccccc4)C(C)=C1C3(C)C)[C@]1(OC(C)=O)CO[C@@H]1C[C@@H]2O [Taxol]
- RF (reversal folds of drug resistance) ([2]; by Schisandrin A (10 μg/ml)): 10.6
- RF (reversal folds of drug resistance) ([2]; by Schisantherin A (10 μg/ml)): 8.4
- IC50 [3, 13]: 38 ± 11 ng/mL
- IC50 [3, 14]: 38 ± 12 ng/mL
- IC50 (ng/ml) +Schisandrin A [3, 11]: 6.4 ± 3.2 ng/mL
- IC50 (ng/ml) +Schisantherin A [3, 12]: 1.1 ± 1.0 ng/mL
- RF (reversal folds of drug resistance) ([3]; by Schisandrin A (10 μg/ml)): 5.9
- RF (reversal folds of drug resistance) ([3]; by Schisantherin A (10 μg/ml)): 34.5
- IC50 ([4]; Homo sapiens, NCI/ADR-RES, 72 h, read-out: IC50 (ng/ml) −ethanol extract): 73 ± 27 ng/mL
- IC50 (ng/ml) +ethanol extract ([4]; MCF7/adr, anticancer agent in the presence of ethanol extracts (50 μg/ml), 72 hours): 25 ± 12 ng/mL
- RF (reversal folds of drug resistance) ([4]; MCF7/adr, by ethanol extracts (50 μg/ml)): 2.9
- RF (reversal folds of drug resistance) ([5]; by Schisandrin A (10 μg/ml)): 6.6
- RF (reversal folds of drug resistance) ([5]; by Schisantherin A (10 μg/ml)): 6.4
- IC50 (ng/ml) +Schisandrin A [6, 11]: 4.1 ± 1.4 ng/mL
- IC50 (ng/ml) +Schisandrin B ([6]; 72 hours): <1 ng/mL
- IC50 (ng/ml) +Schisantherin A [6, 12]: 4.3 ± 1.4 ng/mL
- RF (reversal folds of drug resistance) ([6]; by Schisandrin A (10 μg/ml)): 7.8
- RF (reversal folds of drug resistance) ([6]; by Schisandrin B (10 μg/ml)): >3
- RF (reversal folds of drug resistance) ([6]; by Schisantherin A (10 μg/ml)): 7.4
- IC50 [6, 13]: 32 ± 9 ng/mL
- IC50 [6, 15]: 3 ng/mL
- IC50 [6, 14]: 32 ± 9 ng/mL
- IC50 ([7]; Homo sapiens, anticancer agent in the absence of ethanol extracts, 72 hours, read-out: IC50 (ng/ml) −ethanol extract): 110 ± 20 ng/mL
- IC50 (ng/ml) +ethanol extract ([7]; anticancer agent in the presence of ethanol extracts (50 μg/ml), 72 hours): 41 ± 24 ng/mL
- RF (reversal folds of drug resistance) ([7]; by ethanol extracts (50 μg/ml)): 2.7

Compound: O=C1c2c(O)ccc(O)c2C(=O)c2c(NCCNCCO)ccc(NCCNCCO)c21 [Mitoxantrone]
- IC50 (ng/ml) +Schisandrin B ([6]; 72 hours): <1 ng/mL
- RF (reversal folds of drug resistance) ([6]; by Schisandrin B (10 μg/ml)): >68
- IC50 [6, 15]: 68 ng/mL

Compound: COc1cc([C@@H]2c3cc4c(cc3[C@@H](O[C@@H]3O[C@@H]5CO[C@@H](C)O[C@H]5[C@H](O)[C@H]3O)[C@H]3COC(=O)[C@H]23)OCO4)cc(OC)c1O [VP-16]
- IC50 (ng/ml) −Schisandrin B ([6]; anticancer agent in the absence of Schisandrin B, 72 hours): >10000 ng/mL
- IC50 (ng/ml) +Schisandrin B ([6]; 72 hours): 1490 ± 213 ng/mL
- RF (reversal folds of drug resistance) ([6]; by Schisandrin B (10 μg/ml)): >6.7
